Test results as given in publication PMC6825211 (Nature Communications, 2019).

Key:
[1] = molecular target: T1, MST1 (Homo sapiens, UniProt Q13043); experiment: LanthaScreen Eu kinase binding assay (HTS and dose response); design: purchased ThermoFisher; conditions: 1 μM; positive control
T1 sequence (Q13043 1-487): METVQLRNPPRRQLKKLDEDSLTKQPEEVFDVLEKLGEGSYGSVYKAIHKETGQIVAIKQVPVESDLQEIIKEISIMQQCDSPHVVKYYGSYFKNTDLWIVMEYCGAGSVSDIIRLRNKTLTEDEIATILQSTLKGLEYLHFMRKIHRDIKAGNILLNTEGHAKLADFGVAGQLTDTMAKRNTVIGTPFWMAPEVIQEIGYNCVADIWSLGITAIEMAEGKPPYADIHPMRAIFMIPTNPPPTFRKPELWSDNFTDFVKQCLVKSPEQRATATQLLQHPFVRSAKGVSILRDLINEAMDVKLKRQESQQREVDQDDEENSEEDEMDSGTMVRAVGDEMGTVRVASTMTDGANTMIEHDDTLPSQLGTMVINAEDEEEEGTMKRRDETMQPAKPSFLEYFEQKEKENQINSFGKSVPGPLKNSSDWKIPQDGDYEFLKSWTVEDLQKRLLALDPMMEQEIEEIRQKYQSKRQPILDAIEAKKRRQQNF
Protocol: A total of 39 hits were selected for 9-point dose response confirmation in triplicate, starting at 1 μM followed by 1:5 serial dilution.
Compounds in 1000× DMSO stock solution were dispensed by using Echo555 liquid dispensing system (Labcyte, CA) to 1536-well microplate (Corning, NY). Kinase buffer A (ThermoFisher, MA) was prepared and added to each well. […] Each reagent was added to the microplate in equal volume.

[2] = test system: mouse model of liver and intestine injury; design: method as in PMID 27535619; conditions: cited from earlier work
[3] = molecular target: T2, MST1 (Rattus norvegicus, UniProt A0A8I6A0F8); experiment: CETSA assay; type: cell-based; conditions: 5 μM, 2 h, INS-1E, 55 °C
T2 construct: endogenous in cells; host or cells: INS-1E (rat beta-cell line)
T2 sequence (A0A8I6A0F8 1-487): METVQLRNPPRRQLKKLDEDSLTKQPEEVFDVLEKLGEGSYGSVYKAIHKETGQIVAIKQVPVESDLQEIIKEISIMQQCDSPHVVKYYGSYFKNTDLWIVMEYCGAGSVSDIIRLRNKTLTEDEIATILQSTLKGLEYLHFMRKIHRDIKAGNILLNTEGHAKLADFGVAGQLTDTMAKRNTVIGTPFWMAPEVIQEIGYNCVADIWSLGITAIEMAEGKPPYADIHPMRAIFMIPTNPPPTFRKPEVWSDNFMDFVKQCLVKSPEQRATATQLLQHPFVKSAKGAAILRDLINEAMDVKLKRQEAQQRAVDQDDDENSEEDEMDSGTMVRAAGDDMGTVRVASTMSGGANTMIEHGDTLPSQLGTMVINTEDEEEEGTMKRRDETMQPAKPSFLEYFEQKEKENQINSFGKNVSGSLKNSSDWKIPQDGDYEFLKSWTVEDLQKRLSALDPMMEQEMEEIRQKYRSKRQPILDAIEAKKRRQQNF
Protocol: Thereafter, cells were pelleted at 200 g for 4 min and resuspended in PBS supplemented with phosphatase and protease inhibitor cocktail at the cell density of 3 Mill./100 µl. Each cell suspension was distributed into five 0.2-ml PCR tubes with 100 µl of cell suspension per tube. PCR tubes were heated at their designated temperature (43–55 °C) on a thermal cycler for 3 min, incubated at room temperature for 3 min, and snap-frozen in liquid nitrogen. Cell lysates were prepared by freezing–thawing the samples in liquid nitrogen twice, and soluble MST1 was detected by western blot analysis.

[4] = molecular target: MST2 (Homo sapiens, UniProt Q13188); experiment: Biochemical kinase dose response (Suppl. Fig. 2, 5); conditions: concentrations up to 10 μM
Sequence of MST2 (Q13188 whole entry, species assumed): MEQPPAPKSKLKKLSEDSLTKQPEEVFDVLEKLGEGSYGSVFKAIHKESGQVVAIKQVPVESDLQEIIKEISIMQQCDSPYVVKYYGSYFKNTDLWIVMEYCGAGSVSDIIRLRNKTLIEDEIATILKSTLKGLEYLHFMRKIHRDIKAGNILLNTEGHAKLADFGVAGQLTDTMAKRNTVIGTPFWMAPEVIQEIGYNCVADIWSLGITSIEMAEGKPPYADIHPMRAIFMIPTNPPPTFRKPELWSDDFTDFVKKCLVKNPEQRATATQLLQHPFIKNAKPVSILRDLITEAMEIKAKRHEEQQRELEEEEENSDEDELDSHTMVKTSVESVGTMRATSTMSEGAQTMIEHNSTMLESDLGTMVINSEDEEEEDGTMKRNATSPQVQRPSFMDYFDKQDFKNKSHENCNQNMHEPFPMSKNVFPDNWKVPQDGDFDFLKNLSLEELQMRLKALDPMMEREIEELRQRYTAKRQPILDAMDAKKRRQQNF

[5] = molecular target: T1, MST1; experiment: Biochemical kinase dose response (Suppl. Fig. 5); conditions: concentrations up to 10 μM
[6] = test system: MST1–LATS2 signaling; experiment: Western blot of YAP-S127 phosphorylation (MST1/LATS2 overexpression); conditions: 10 μM, last 24 h
[7] = test system: MST1–LATS2 signaling; experiment: LATS-BS in vitro luciferase assay (MST1/LATS2 overexpression)
From the text: Therefore a LATS-BS construct has been generated with fusion of YAP fragment and 14-3-3 with N-terminal and C-terminal firefly luciferase fragments (N-luc and C-luc), respectively that assesses LATS kinase activity by measuring the interaction between pS127-YAP and 14-3-3[35] in a MST1–LATS2-phosphorylation-dependent manner (Fig. 4a).
As internal transfection control, pRL-Renilla luciferase control reporter vector (Promega) was co-transfected into each sample. […] Luciferase signal was calculated based on the ratio of luciferase activity of LATS-BS to control reporter vector.

[8] = test system: INS-1E cells; experiment: Western blot of pMST1, caspase-3/PARP cleavage, PDX1, BIM under diabetogenic conditions; type: cell-based, rat; conditions: 10 μM, 24 h
Protocol: . pThr183), caspase-3 and PARP cleavage, PDX1, tubulin, and actin were analyzed by western blotting. Representative Western blots and pooled quantitative densitometry analysis are shown from three independent cell line experiments (n = 3). […]; all by Student’s t tests.
. pThr183), caspase-3 and PARP cleavage, and BIM and actin were analyzed by western blotting. Representative Western blots (b) and pooled quantitative densitometry analysis (c) are shown from 3–6 independent culture dishes (n = 3–6). […]; all by Student’s t tests.
Human islets were isolated from eight pancreases of nondiabetic organ donors at PRODO Labs and at Lille University and cultured on extracellular matrix-coated dishes (Novamed, Jerusalem, Israel)[62] or on Biocoat Collagen I coated dishes (#356400, Corning, ME, USA). […] The clonal rat β-cell line INS-1E was kindly provided by Dr. Claes Wollheim, Geneva & Lund University. Human islets were cultured in complete CMRL-1066 (Invitrogen) medium at 5.5 mM glucose, mouse islets and INS-1E cells at complete RPMI-1640 medium at 11.1 mM glucose. […] . Palmitic acid (Sigma) was dissolved at 10 mmol/l in RPMI-1640 medium containing 11% fatty acid–free bovine serum albumin (BSA) (Sigma) under an N2-atmosphere and added to the culture at 0.5 mM[64]. […] . Isolated human islets or INS-1E cells were infected with adenovirus carrying LacZ as control or MST1 or LATS2 (all Vector Biolabs), at a multiplicity of infection of 100 (human islets) or 20 (INS-1E) for 4 h[11]. Adenovirus was subsequently washed off with PBS and replaced by fresh medium with 10% FBS and the respective analysis performed after 48 h post infection.

[9] = test system: MST family members; design: method as in PMID 22037378; conditions: cited from earlier work

## CN[C@@H]1C[C@H]2O[C@@](C)([C@@H]1OC)n1c3ccccc3c3c4c(c5c6ccccc6n2c5c31)C(=O)NC4 [staurosporine]
[1]
  inhibition at 1 µM: 100%

## CN1C(=O)c2sccc2N(C)c2nc(Nc3ccc(S(N)(=O)=O)cc3)ncc21 [XMU-MP-1]
[2]
  effect in mouse model of liver and intestine injury: promotes tissue repair and regeneration

## C=CC(=O)Nc1cc2c(Nc3ccc(F)c(Cl)c3)ncnc2cc1OCCCN1CCOCC1 [canertinib]
[3]
  thermal stabilization of MST1 in intact cells: degradation occurred at the same condition
[4]
  inhibition of MST2: no appreciable inhibition
[5]
  inhibition of MST1: no appreciable inhibition
[6]
  MST1/LATS2-induced YAP-S127 phosphorylation: had no inhibitory effect
[7]; 10 μM, last 24 h
  MST1/LATS2-induced luciferase activity (LATS-BS): had no inhibitory effect
[7]; L2/Mst1 overexpression + 10 μM compound, mean of six dishes
  Firefly/Renilla x1000 (MEAN): 27.5257
[8]
  cleaved caspase-3, cleaved PARP, and BIM under basal conditions: significant stimulatory effect
[8]; HG/Pal
  mitochondrial BIM induction under diabetic conditions: but not the EGFR inhibitor canertinib significantly reduced
  stress-induced MST1 activation and caspase-3 and PARP cleavage: ineffective
[9]
  activity on MST family members: without MST family inhibitory activity
